For series [1], the target named is T1, hTLR7 (Homo sapiens, UniProt Q9NYK1).
T1 construct: host or cells: HEK293
T1 sequence (Q9NYK1 27-1049): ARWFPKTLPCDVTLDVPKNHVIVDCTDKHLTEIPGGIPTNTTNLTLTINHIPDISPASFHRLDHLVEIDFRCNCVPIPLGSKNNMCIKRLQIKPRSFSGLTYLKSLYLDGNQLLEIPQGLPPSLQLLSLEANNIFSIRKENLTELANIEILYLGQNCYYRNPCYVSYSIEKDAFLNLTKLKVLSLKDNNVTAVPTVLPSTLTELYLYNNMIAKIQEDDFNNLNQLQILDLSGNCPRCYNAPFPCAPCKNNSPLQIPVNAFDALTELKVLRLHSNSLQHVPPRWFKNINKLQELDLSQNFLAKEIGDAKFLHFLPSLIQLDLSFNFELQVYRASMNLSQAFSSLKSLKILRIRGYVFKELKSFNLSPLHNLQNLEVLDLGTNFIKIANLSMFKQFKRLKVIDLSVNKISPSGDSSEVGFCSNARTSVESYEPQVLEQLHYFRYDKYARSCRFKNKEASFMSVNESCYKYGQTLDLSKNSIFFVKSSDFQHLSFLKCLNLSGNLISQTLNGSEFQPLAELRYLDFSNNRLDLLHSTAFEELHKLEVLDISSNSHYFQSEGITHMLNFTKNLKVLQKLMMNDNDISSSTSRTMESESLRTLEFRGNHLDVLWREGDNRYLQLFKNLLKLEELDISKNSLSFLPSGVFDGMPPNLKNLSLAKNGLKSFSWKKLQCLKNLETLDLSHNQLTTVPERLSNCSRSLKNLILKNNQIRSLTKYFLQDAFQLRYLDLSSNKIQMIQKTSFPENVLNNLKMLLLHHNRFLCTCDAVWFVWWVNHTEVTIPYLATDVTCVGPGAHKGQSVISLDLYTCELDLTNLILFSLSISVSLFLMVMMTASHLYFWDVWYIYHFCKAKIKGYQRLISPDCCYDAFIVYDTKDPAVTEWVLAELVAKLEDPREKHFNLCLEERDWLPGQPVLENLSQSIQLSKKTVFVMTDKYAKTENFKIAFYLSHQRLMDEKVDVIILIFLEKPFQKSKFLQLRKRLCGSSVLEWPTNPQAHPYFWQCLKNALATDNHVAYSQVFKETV
Briefly: TLR7 agonist activity, HEK293 hTLR7 SEAP reporter assay. The conditions noted are these: HEK293 cotransfected with hTLR7 and inducible SEAP reporter gene, 24 h treatment; average ± SD of three independent replicates; n.a. = not active; read-out: EC50. It is filed as cell-based. The protocol: TLR7 agonist activities were determined using the HEK293 cell line, which was cotransfected with the hTLR7 gene and an inducible SEAP reporter gene (InvivoGen, San Diego, California, USA) as described previously.[34] Briefly, cells were seeded in 96-well plates (3 × 10^4 cells/well) and incubated at 5% CO2 and 37 °C. After 24 h, the cells were treated with the solutions of the compounds in DMSO. Imiquimod was used as a PC. The cells were incubated again for 24 h under the same conditions. The activity of SEAP in the supernatant of the cells was measured using the QUANTI-Blue reagent (InvivoGen, San Diego, California, USA), according to the manufacturer's protocol. EC50 values were determined using GraphPad Prism 9.2.0. software (San Diego, California, USA) using the nonlinear regression curve fit and four-parameter logistic equation. All experiments were performed in three independent biological replicates. Values are given as averages from the independent measurements with standard deviations calculated.
On the technique in general: Reporter assays use an easily measured gene product as a stand-in for the process of interest.

Series [2] relates to human peripheral blood mononuclear cells (PBMCs). Briefly: Cytokine secretion in PBMCs, cytometric bead array. It is filed as cell-based. The conditions noted are these: 24 h; for IL-6 concentration / IL-8 secretion / IL-10 concentration / IL-12p70 secretion / TNF-α secretion / IL-1β secretion: 21a 62.5 and 12.5 μM, 24a 125 and 25 μM. On the procedure: PBMCs were seeded on a 24-well plate and treated with compounds 21a (62.5 μM (21a (1)) and 12.5 μM (21a (2))) and 24a (125 μM (24a (1)) and 25 μM (24a (2))). For a positive control (PC), imiquimod (1) was used (final concentration is 10 μg/mL) and the negative control were cells treated with DMSO. […] The BD Human Cytometric Bead Array (BD Biosciences, California, USA) was used to assay the protein levels of IL-1β, IL-6, IL-8, IL-10, IL-12p70, and TNF-α in the cell culture supernatant, according to the manufacturer’s protocol (BD Biosciences). PBMCs were isolated from buffy coats obtained at the Blood Transfusion Centre of Slovenia. Cells were seeded into 24-well plates (5 × 10^5 cells/well in […] of RPMI medium, Sigma-Aldrich, St. Louis, Missouri, USA) and treated with the selected TLR7 agonist. For a PC, imiquimod was used (final concentration is 10 μg/mL) and the negative control were cells treated with DMSO. Cells were centrifuged after 24 h incubation at 5% CO2 and 37 °C, and cell culture supernatants were used for further analysis. In an assay tube, […] of the Capture Beads, […] of the Detection Reagent, and […] of sample (fivefold dilution) were mixed and incubated for 3 h at room temperature and protected from light. Samples were then washed with 1 mL of wash buffer and centrifuged at 200g for 5 min. The supernatant was carefully aspirated and discarded from each assay tube. The bead pellet was resuspended by adding […] of wash buffer. Flow cytometry was performed using a FACSCalibur system (Becton Dickinson, Inc., New Jersey, USA). A standard curve was prepared by serial dilutions of standards and used for determination of cytokine concentrations in supernatants.

The test system of series [3] is HEK293 cell line cotransfected with the hTLR7 gene. Kind of series: Cytotoxicity, MTS cell proliferation assay. It is filed as cell-based, human. Particulars: 24 h. On the procedure:
The cytotoxicity of the compounds was determined by the MTS assay at concentrations of 150, 50, and 10 μM on the HEK293 cell line cotransfected with the hTLR7 gene (Figure 3).
The cytotoxicity of the compounds was determined using the MTS cell proliferation assay (CellTiter 96 AQueous One Solution Cell Proliferation Assay, Promega, Wisconsin, USA), according to the manufacturer's protocol on the HEK293 cell line, cotransfected with the hTLR7 gene (InVivoGen). Cells were seeded in 96-well plates (1.5 × 10^4 cells/well). After 24 h incubation at 5% CO2 and 37 °C, the cells were treated either with DMSO (negative control) or with solutions of the tested compounds in DMSO. After 24 h, MTS reagent (CellTiter 96 AQueous One Solution Cell Proliferation Assay, Promega, Wisconsin, USA) was added. Cells were incubated for another 2 h, and then absorbance was measured at 490 nm.
In general terms: Formazan colour is commonly taken as a measure of viable cells.

Entries after “also recorded” stand apart in the source; their conditions may differ.

As usually defined, the EC50 is the concentration needed to bring the measured effect to its halfway point.

Consider `CC1CCCN(c2nc(C(F)(F)F)nc3onc(-c4ccc(F)cc4)c23)C1` (stereo not drawn) [Compound 21a, 3-(4-Fluorophenyl)-4-(3-methylpiperidin-1-yl)-6-(trifluoromethyl)isoxazolo[5,4-d]pyrimidine], for which the EC50 in series [1] was 7.8 ± 0.1 µM. Also, in series [2], the IL-6 concentration entry is on record as “did not increase significantly”, the IL-8 secretion result is listed as “induced the secretion”, the IL-10 concentration result was “did not increase significantly” and the IL-12p70 secretion entry was “induced the secretion”. Further, in series [2], the TNF-α secretion result is listed as “induced the secretion”. Also, the IL-1β secretion result in series [2] (imiquimod 10 μg/mL) is “induced the secretion”. Besides, in series [2] (21a at 62.5 μM, imiquimod 10 μg/mL), the “induction of TNF-α secretion in comparison to 1 (imiquimod)” value is reported as “higher induction”. For the same compound, in series [3] (150, 50 and 10 μM), the “cytotoxicity (cell viability)” value is “noncytotoxic; also recorded: no cytotoxic effects”.

Consider `Cl.Fc1ccc(-c2noc3nc(C(F)(F)F)nc(N4CCNCC4)c23)cc1` [Compound 21i, 4-(3-(4-Fluorophenyl)-6-(trifluoromethyl)isoxazolo[5,4-d]pyrimidin-4-yl)piperazin-1-ium chloride], for which the “cytotoxicity (cell viability)” value in series [3] (150 μM) is “highly cytotoxic”; in series [3] (150, 50 and 10 μM) it was “cytotoxic”.

For the compound `CC1CCCN(c2nc(C(F)(F)F)nc3onc(C4CC4)c23)C1` (stereo not drawn) [Compound 24a, 3-Cyclopropyl-4-(3-methylpiperidin-1-yl)-6-(trifluoromethyl)isoxazolo[5,4-d]pyrimidine], in series [1], the EC50 is 25.3 ± 3.5 µM. Moreover, in series [2], the IL-6 concentration entry was “did not increase significantly”, the IL-8 secretion entry is on record as “induced the secretion”, the IL-10 concentration entry is recorded as “did not increase significantly” and the IL-12p70 secretion entry is reported as “induced the secretion”. In series [2], the TNF-α secretion entry is “induced the secretion”. In addition, in series [2] (imiquimod 10 μg/mL), the IL-1β secretion entry was “induced the secretion”.

For the compound `CC1CCCN(c2nc(C(F)(F)F)nc3onc(C4CCNCC4)c23)C1.Cl` (stereo not drawn) [Compound 25a, 4-(4-(3-Methylpiperidin-1-yl)-6-(trifluoromethyl)isoxazolo[5,4-d]pyrimidin-3-yl)piperidin-1-ium chloride], in series [3] (150 μM), the “cytotoxicity (cell viability)” value is listed as “highly cytotoxic”.

Turning to `CC(C)CNc1nc(C(F)(F)F)nc2onc(C3CCNCC3)c12.Cl` [Compound 25b, 4-(4-(Isobutylamino)-6-(trifluoromethyl)isoxazolo[5,4-d]pyrimidin-3-yl)piperidin-1-ium chloride], the “cytotoxicity (cell viability)” value in series [3] (150 μM) was “highly cytotoxic”.

Consider `CC(C)Cn1cnc2c(N)nc3ccccc3c21` [imiquimod, reference compound], for which, in series [2] (imiquimod 10 μg/mL), the IL-1β secretion entry was “stimulated the release”.
